US12527835B2, “Brevican-binding peptides for brain tumor imaging” (The Brigham and Women's Hospital, Inc., priority 2018, dated 2026)
Where a SMILES comes first, the peptide text is derived from it. Where no end group is shown, it is not given here. [ ]: non-standard residue; d: D form. Ahx = NCCCCCC(=O)O

Experiments:
[1] = biological target: T1, recombinant BΔg protein (deglycosylated brevican) (Homo sapiens, UniProt Q96GW7); experiment: Octet steady state binding affinity to recombinant BΔg
T1 construct: purchased R&D Systems 4009-BC-050
T1 sequence (Q96GW7 23-911): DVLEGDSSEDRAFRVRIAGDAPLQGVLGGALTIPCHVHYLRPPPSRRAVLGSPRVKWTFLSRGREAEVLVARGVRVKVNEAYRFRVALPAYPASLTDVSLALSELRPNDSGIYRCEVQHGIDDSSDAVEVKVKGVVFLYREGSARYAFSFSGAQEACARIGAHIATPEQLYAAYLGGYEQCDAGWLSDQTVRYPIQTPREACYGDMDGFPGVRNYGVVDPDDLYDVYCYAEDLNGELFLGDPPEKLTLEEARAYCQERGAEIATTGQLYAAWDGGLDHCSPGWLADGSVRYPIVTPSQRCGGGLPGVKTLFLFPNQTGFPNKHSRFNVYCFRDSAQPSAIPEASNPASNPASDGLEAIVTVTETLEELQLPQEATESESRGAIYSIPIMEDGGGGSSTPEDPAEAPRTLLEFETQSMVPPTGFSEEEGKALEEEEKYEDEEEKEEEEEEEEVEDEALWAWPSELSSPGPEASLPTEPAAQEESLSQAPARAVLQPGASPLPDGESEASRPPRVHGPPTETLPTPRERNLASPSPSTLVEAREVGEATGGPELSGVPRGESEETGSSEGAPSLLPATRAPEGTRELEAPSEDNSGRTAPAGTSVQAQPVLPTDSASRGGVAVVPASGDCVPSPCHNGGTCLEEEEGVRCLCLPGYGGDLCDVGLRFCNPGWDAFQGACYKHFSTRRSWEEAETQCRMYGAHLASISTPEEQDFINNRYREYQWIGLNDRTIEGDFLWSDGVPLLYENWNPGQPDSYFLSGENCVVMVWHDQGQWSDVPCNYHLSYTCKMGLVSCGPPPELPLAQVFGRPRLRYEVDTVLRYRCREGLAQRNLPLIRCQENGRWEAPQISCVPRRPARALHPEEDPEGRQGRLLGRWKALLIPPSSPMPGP
Experimental: A ForteBio OctetRed384 instrument was used to study the binding kinetics of each peptide to recombinant human brevican (re-suspended in PBS and 0.1 mM EDTA, pH 6.8). The brevican protein was deglycosylated prior to experimental use in water+0.05% tween, PI, sialidase, 0-glycosidase, N-glycosidase in sodium acetate [200 mM], NaCl [250 mM], Tris-HCl [200 mM], pH 7.5.) in the presence of protease inhibitor overnight at 4° C. (this entire composition will be referred to as ‘de-glycosylation buffer’). […] The final volume for all the solutions was 80 μl/well. Assays were performed at 30° C. in solid black 384-well plates (Geiger Bio-One). Prior to beginning, Ni-NTA biosensors were soaked for 10 min in working buffer. Before loading the protein onto each biosensor, a baseline was established in working buffer for 60 s. Deglycosylated brevican (50 μg/ml BΔg; His-tagged) was loaded on the surface of each biosensors for 180 s. […] Reference biosensors were also included in the plate as internal controls, where biosensors were exposed to the ‘de-glycosylation buffer’ lacking brevican protein during the loading step. A 60 s biosensor washing step was applied. Then, biosensors were exposed to the analyte (peptide) in working buffer (ranging between 0-10 μM BTP) for 300 s during the ‘association’ step. Finally, the biosensors were exposed to working buffer (without peptide) during the ‘dissociation’ step for 600 s. Binding affinity of each peptide was assessed through steady state analysis, where the response unit was plotted over peptide concentration. All data was plotted and curves were fitted using the non-linear ‘one-site specific binding’ fit, and the dissociation constant (KD) value was calculated using the GraphPad Prism software.
Binding kinetics analyses were performed using the Octet RED platform (Forte Bio) to measure the binding affinity of BTP-7, 8 and 9 to purified recombinant BΔg protein.

BT188 glioma stem cells = experiment: Peptide uptake in BT188 (BΔg-high) versus BT145 (BΔg-low) glioma stem cells, fluorescence imaging; format: cell-based, human; settings: fluorescein-labeled peptides, 5 μM
Description: FIGS. 3A-I. Peptide characterization for BΔg specificity in glioma stem cells. (a) Table summary listing the properties of 7 peptides (composed of 8 D-amino acid residues, SEQ ID NOs:3-9, in order of appearance) that were isolated from the OBOC library screen. MW=molecular weight; KD=Kyte-Doolittle scale for amino acid hydropathy (positive scores indicate […]) (Kyte and Doolittle, J. Mol. Biol. 157, 105-132 (1982)). (b) Chemical structure showing the linkage between the peptide and FITC. (c) Western blot analysis showing the level of BΔg and Bcan in human embryo kidney (HEK) cells, and Bcan-overexpressing HEK cells (HEK-Bcan). […] Each group was normalized to a no-blocking (vehicle) control. Statistics were performed using multiple t-tests, and significance was measured in comparison to each vehicle control (p<0.0001). (e) Uptake of fluorescein-labeled BTP-2, 7, 8, 9, and 10 (at 5 μM conc.) in BT188 (BΔg-high) or BT145 (BΔg-low) glioma stem cells (GSCs). Western blot analysis on the top right confirms the BΔg expression level. […] Statistics were performed using the two-way ANOVA and Tukey's Multiple Comparison test. (f) Chemical structure showing the linkage between the peptide and Cy5.5 dye. (g) Western blot analysis showing the expression of BΔg in GBM-6 cells, with negligible BΔg level in astrocytes or neural progenitor cells (NPC). (h) Graph showing the cell uptake ranking of the top 3 peptide candidates, BTP-7, 8 and 9 in GBM-6 cells as determined by flow cytometry analysis with s.d. error bars (5 μM conc.; nevents=20,000 cells; nexperiment=5). Each group is normalized to the control scramble peptide (Scr-8). Statistics were performed using the one-way ANOVA and Tukey's Multiple Comparison test (significance were measured in comparison to the Scr-8 control). (i) Bar graph showing the uptake of BTP-7, 8 and 9 in GBM-6 cells and NPC with 95% confidence interval error bars (1 μM conc.; nevents=20,000 cells). Statistics were performed using the two-way ANOVA and Sidak's Multiple Comparison test.

HEK-Bcan cells [2] = experiment: Flow cytometry blocking study with 50× molar excess of unlabeled peptide; format: cell-based, human; settings: fluorescein-conjugated peptide 1 μM
Experimental: (§1) Cells were washed once with PBS and then, treated with 1 mL of 2.5 mM EDTA to dissociate the cells. The EDTA was removed by centrifugation, and PBS supplemented with 10% FBS was added to create a single-cell suspension. All peptide stocks were dissolved in DMSO, and stored at −20° C. in the dark. Cells were incubated with each peptide (at the desired final concentration, between 1-10 μM) for 3 hrs at 37° C. in the dark under constant rotation. After incubation, cells were washed 3× with PBS with 10% FBS (by centrifugation at 7000 rpm for 3 mins each). Then, cells were resuspended in 3.7% formaldehyde for fixation, and finally washed once with PBS. Cells were evaluated for peptide uptake (mean fluorescence intensity) by flow cytometry (10,000-20,000 events).
For blocking studies, cells were dissociated as described above and resuspended in cold PBS with 10% FBS. Cells were then incubated with a 50× molar excess of unlabeled peptide for 10 mins on ice, before adding the corresponding FITC-labeled peptide at a final concentration of 1 μM and incubated for 1.5 hrs on ice. Cells were then washed with cold PBS with 10% FBS, fixed and analyzed by flow cytometry.

GBM-6 cells = experiment: Flow cytometry cell uptake in GBM-6 cells; format: cell-based, human; settings: Cy5.5-conjugated peptides; for uptake in GBM-6 cells at 4° C. compared to 37° C.: 5 μM, inhibition of endocytosis
Experimental: as §1

HEK-Bcan cells [3] = experiment: Flow cytometry cell uptake, HEK-Bcan versus regular HEK cells; format: cell-based, human; settings: Cy5.5-conjugated peptides, 5 μM
Experimental: as §1

Molecule | Kd [1] | size of the difference in uptake between BT188 and BT145 GSCs (ranking) (BT188 glioma stem cells) | uptake in BT188 GSCs compared with BT145 GSCs (BT188 glioma stem cells) | uptake in HEK-Bcan cells in the presence of the blocking peptide (HEK-Bcan cells [2]) | uptake in GBM-6 GSCs compared with astrocytes (GBM-6 cells) | uptake in GBM-6 cells at 4° C. compared to 37° C. (GBM-6 cells) | uptake in HEK-Bcan cells compared with regular HEK cells (HEK-Bcan cells [3])
CC[C@@H](C)[C@@H](NC(=O)[C@@H](C)NC(=O)[C@@H](CCCNC(=N)N)NC(=O)[C@@H](CCC(N)=O)NC(=O)[C@@H](CCCNC(=N)N)NC(=O)[C@@H](CCCNC(=N)N)NC(=O)[C@@H](CC(=O)O)NC(=O)[C@@H](C)N)C(N)=O [BTP-9] (H-[dA][dD][dR][dR][dQ][dR][dA][dI]-NH2; N-terminus and C-terminus assumed) | 1500 nM | largest and most significant difference | greater uptake | reduced uptake | – | – | –
BTP-10: BΔg-targeting peptide of 8 D-amino acid residues from OBOC screen; sequence only in FIG. 3A ([dS][dH][dW][dA][dV][dN][dR][dF]; not fully specified) | – | – | – | reduced uptake | – | – | –
BTP-9-Cy5.5 ([dA][dD][dR][dR][dQ][dR][dA][dI]-{Ahx-Pra(Cy5.5)-NH2}) | – | – | – | – | significantly higher | significantly reduced | significantly higher
BTP-8-Cy5.5 ([dT][dI][dR][dK][dL][dV][dR][dH]-{Ahx-Pra(Cy5.5)-NH2}) | – | – | – | – | significantly higher | significantly reduced | significantly higher
